Data published in patent publication US20140234868A1, “USE FOR GLYCOLIPOPROTEIN GINTONIN, ISOLATED AND IDENTIFIED FROM GINSENG, AS A NATURAL MEDICAL-PLANT DERIVED LIGAND” (KONKUK UNIVERSITY INDUSTRIAL COOPERATION CORP., priority 2011, published 2014).

What was measured:
LPA2 receptor = LPA2 receptor (Homo sapiens, UniProt Q9HBW0); assay: Intracellular free Ca2+ (Fura-2AM) in LPA2-expressing B103 cells; assay type: cell-based; design: host or cells: B103 rat neuroblastoma cells; conditions: LPA2-expressing B103 cells
Sequence of LPA2 receptor (Q9HBW0 whole entry): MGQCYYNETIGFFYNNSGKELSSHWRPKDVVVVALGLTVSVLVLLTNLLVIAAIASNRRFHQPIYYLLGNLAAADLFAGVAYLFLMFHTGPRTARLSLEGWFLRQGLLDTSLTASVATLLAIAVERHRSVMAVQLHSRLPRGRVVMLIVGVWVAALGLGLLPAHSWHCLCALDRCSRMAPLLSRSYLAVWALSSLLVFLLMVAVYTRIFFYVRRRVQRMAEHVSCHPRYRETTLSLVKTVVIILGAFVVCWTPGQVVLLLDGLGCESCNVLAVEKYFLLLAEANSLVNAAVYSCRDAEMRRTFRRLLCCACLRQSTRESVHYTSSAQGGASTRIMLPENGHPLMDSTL
Source text: LPA family receptors are endogenous to cells of most organs. B103 rat neuroblastoma cells, known as LPA receptor-null cells (Valentine et al., Biochim Biophys Acta 1780. 597-605) were transiently transfected with a plasmid (vector) carrying one of genes coding for LPA1(edg-2), LPA2(edg-4), LPA3(edg-7), LPA4, LPA5 and LPA6 receptors or a plasmid carrying none of them (empty vector). Two or three days after transfection, the cells are suspended, and made permeable. Then, the permeable cells are treated with Fura-2AM, a fluorescent dye binding to calcium, and then with gintonin, followed by spectrofluorephotometry to examine whether gintonin induces an increase in intracellular free Ca^2+ level.
(1) preparing large quantities of plasmids carrying respective LPA family receptor genes and an empty plasmid carrying none of them through amplification and purification (maxi-preparation); (2) verifying the expression of LPA receptors wherein B103 cells are transfected with haematoglutin (HA)-tagged LPA receptors, and then subjected to Western blotting analysis using an anti-HA primary antibody and a horseradish peroxidase (HRP)-conjugated secondary antibody to develop a color; (3) verifying the expression of LPA receptors wherein B1-3 cells are transfected with haematoglutin (HA)-tagged LPA receptors, and then subjected to confocal laser microscopy using an anti-HA antibody and a fluorescence dye Cy3-conjugated secondary antibody; (4) transfecting the empty plasmid and each of the plasmids carrying LPA family receptor genes into B103 cells; (5) treating the transfected B103 cells with trypsin (0.05% trypsin with EDTA, w/v) 2-3 days post-transfection, to give a cell suspension; (6) culturing the suspended B103 cells with Fura-2AM (2.5 μM); and (7) treating the suspended B103 cells with gintonin and quantifying a change in intracellular free Ca^2+ level in a cuvette by spectrofluorephotometry using Fura-2AM.
Human LPA (lysophosphatidic acid) receptor subtypes, orphan GPCRs (G protein coupled receptors) and plasmids carrying GPCRs were purchased from Missouri S&T resource Center (www.cDNA.org).
The transient transfection of LPA receptor subtypes was carried out with the aid of Lipofectamine 2000 of Invitrogen. A plasmid (10.8 μg) carrying each LPA receptor (LPA1, LPA2, LPA3, LPA4, LPA5, and LPA6) was transfected into B103 cells grown in 10-cm dishes, and incubated for 2 days prior for use in experiments.
In this Example, gintonin, or ginsenoside Rb1 or Rg1 was examined for its ability to induce a transient increase of [Ca^2+]i in Fura-2AM-loaded B103 cells which were transfected with LPA receptors and in Fura-2AM-loaded B103 cells which were not transfected with LPA receptors. […]

[1] = tested on: NMDA receptors (NR1 and NR2); assay: NMDA receptor activity in Xenopus oocytes, two-electrode voltage clamp; assay type: cell-based; conditions: Kil6425 10 μM, 2-APB 100 μM, BAPTA 100 μM 3 h
Experimental: cDNAs of NMDA receptor subunits (NR1 and NR2) were employed (Zheng et al., J Neurosci. 17, 8676-8686, 1997). cDNAs (100 ng/40 nl) corresponding to respective NMDA receptor subunits (NR1 and NR2) were injected into animal or vegetal poles of oocytes by use of a […] (VWR Scientific, USA) and incubated for 4-5 days after injection (Zheng et al., J Neurosci. 17, 8676-8686, 1997).
(§1) Xenopus laevis frogs were obtained from Xenopus I (Ann Arbor, Mich.). Their care and handling were in accordance with the highest standards of institutional guidelines. To isolate oocytes, the frogs were operated on under anesthesia with an aerated solution of 3-aminobenzoic acid ethyl ester. Oocytes were separated by treatment with collagenase and agitation for two hours in a Ca^2+-free medium containing 82.5 mM NaCl, 2 mM KCl, 1 mM MgCl2, 5 mM HEPES, 2.5 mM sodium pyruvate, 100 units/ml penicillin and 100 μg/ml streptomycin.
(§2) Stage V-VI oocytes were collected and stored in ND96 (96 mM NaCl, 2 mM KCl, 1 mM MgCl2, 1.8 mM CaCl2, and 5 mM HEPES, pH 7.4) supplemented with 50 μg/ml gentamicin. This oocyte containing solution was maintained at 18° C. with continuous gentle shaking while the ND96 medium was changed to a fresh one every day.
Two-electrode voltage-clamp recordings were obtained from individual oocytes placed in a small Plexiglas net chamber (5 ml). Electrophysiological experiments were performed using microelectrodes filled with 3 M KCl (resistance of 0.2-0.7 MΩ) and an Oocyte Clamp amplifier (OC-725C; Warner Instrument, Hamden, Conn.). For physiological recordings of NMDA receptor activity, oocytes were first perfused with Mg^2+-free ND96 (mM: 96 NaOH, 2 KOH, 0.3 CaCl2, 5 HEPES pH 7.6 with methanesulfonic acid). Then, the oocytes were clamped at −60 mV holding potential, followed by recoding NMDA currents (induced by administering […]) (Zheng et al., J Neurosci. 17, 8676-8686, 1997; Chang and Kuo, J Neurosci. 28, 1546-1556, 2008).

endogenous CaCC = assay: Endogenous Ca2+-activated channel (CaCC) activation in Xenopus oocytes; assay type: cell-based, Xenopus laevis; conditions: Kil6425 10 μM; U73122 1 μM; 2-APB 100 μM; BAPTA 100 μM 3 h
BKCaK+ channels = assay: BKCa K+ channel activity in Xenopus oocytes, two-electrode voltage clamp; assay type: cell-based; conditions: Kil6425 10 μM; U73122, U73343 1 μM; 2-APB 100 μM; BAPTA-AM; PMA 1 μM
Experimental: as §1
as §2, with “changed with” for “changed to”
Two-electrode voltage-clamp recordings were obtained from individual oocytes placed in a small Plexiglas net chamber (5 ml). Electrophysiological experiments were performed using microelectrodes filled with 3 M KCl (resistance of 0.2-0.7 MΩ) and an Oocyte Clamp amplifier (OC-725C; Warner Instrument, CT, USA) to record BKc K^+ channel activity at room temperature (Choi et al., Mol Cells 31, 133-140, 2011). For physiological recordings of BKCaK^+ channel activity, oocytes were first perfused with a Cl^−- and Ca^2+-free solution (mM: 96 NaOH, 2 KOH, 8 Mg-gluconate, 5 HEPES, 5 EGTA, pH 7.4 with methanesulfonic acid) supplemented with 500 μM anthracene-9-carboxylic acid, a Cl^− channel blocker, to block endogenous Cl-channels (Lu et al., J. Biol. Chem. 265, 16190-16194.1990). Then, the oocytes were clamped at −80 mV holding potential, followed by step depolarization from the holding potential to +40 mV at regular intervals of […] for 400 ms to record outward currents.

mice [2] = assay: Water maze test, scopolamine-caused spatial cognition impairment; assay type: in vivo, mouse; conditions: scopolamine alone (0.9 mg/kg i.p.)
Experimental: The Moths water maze set up contained a round water pool (45 cm deep with a diameter of 90 cm) filled with milk-mixed water (22±1° C.) to a depth of 30 cm. It was placed in a dark, sound-shielded room in which various visual cues were established. A white platform (6 cm in diameter, 29 cm in height) was inside the pool, with the top thereof 1 cm below the water surface in the center of one quadrant of the maze
On day 1, the mice were trained to swim for 60 sec. Subsequently, the training was conducted four times a day for four consecutive days, with the platform inside the pool. When the mouse reached the platform, it was allowed to sit on the platform only for 10 sec. If the failed in reaching the platform within 60 sec, it was guided to reach the platform and stay for 10 sec thereon. Afterwards, the mouse was returned back to the home cage and allowed to dry its body under an IR lamp. The time interval between trials was 30 sec.
The time to reach the hidden platform was recorded in each trial using a video camera-based Ethovision System (Nodulus, Wageningen, the Netherlands).
For each training trial, the mouse was placed into the pool at one quadrant at positions which were different day by day. One day after the final training trial, the mouse was evaluated. In this regard, after the platform was removed, the mouse was allowed to swim for 60 sec in search for the platform, and the time to swim in the quadrant where the platform was located was recorded. Gintonin (25, 50, or 100 mg/kg, p.o.) in physiological saline was administered 1 hr before test, every day. Tacrine (10 mg/kg, p.o.) was used as a positive control. Memory impairment was induced by scopolamine (0.9 mg/kg i.p.) 30 min after gintonin administration. For a negative control, only physiological saline was administered.
An examination was made of simple spatial reasoning. To this end, while the mice were allowed to swim in the absence of the rescue platform in the pool, the time period during which the mice swam in the quadrant where the rescue platform had been located was recorded.

mice [3] = assay: Passive avoidance test, scopolamine-caused long-term memory impairment; assay type: in vivo, mouse; conditions: scopolamine alone (0.9 mg/kg, i.p.); test session 24 h after learning
Experimental: ICR male mice (25-28 g), purchased from Oriental Bio (Seoul, Korea), were bred according to the guideline of the Institutional Animal Care and Use Committee of Konkuk University, and subjected to passive avoidance test to examine memory maintenance impairment and the protection of gintonin against memory impairment according to the method of Yang et al. (Yang et al., Biol Pharm Bull 32, 1710-1715, 2009).
A passive avoidance test was performed in a training chamber which was divided into two compartments (20×20×20 cm in size, each) separated by an automatically moving guillotine door (5×5 cm): one compartment was lighted while the other remained dark where metal rods installed in a lattice pattern on the bottom so as to deliver an electrical foot shock (Gemini Avoidance System, San Diego, USA).
For an acquisition trial, a mouse was first placed in the lighted compartment, facing away from the dark compartment and allowed to explore for 10 sec. After 10 sec, the guillotine door was opened and the mouse was allowed to explore freely. When the mouse entered the dark compartment with all four paws according to its habit, the guillotine door was closed, and a footshock (0.5 mA, 3 sec duration) was delivered. The latency time to enter the dark compartment was recorded (from the time the door was lifted). 120 min before experimentation, gintonin (25, 50, 100 mg/kg, p.o) was administered while tacrine (10 mg/kg, p.o) was used as a positive control. Memory impairment was induced by injecting scopolamine (0.9 mg/kg, i.p.) 30 min after gintonin or tacrine administration (Araujo et al., Prog Neuropsycopharmcol Biol Psychiatry 29, 411-422, 2005). For a negative control, a physiological saline was used.
24 Hours after the learning session, an experiment was performed without injecting gintonin. The mouse was positioned again in the lighted compartment. After 10 sec of acclimation, the latency time to enter the dark compartment was recorded (from the time the door was lifted).

Compound	effect on gintonin-induced intracellular calcium increase (LPA2 receptor)	effect on NMDA-induced inward current ([1]; U73122 1 μM)	effect on gintonin-induced NMDA receptor activation ([1]; gintonin 1 μg/ml, U73122, U73343 1 μM, genistein 10 μM, PP2, PP3 30 μM)	effect on gintonin-induced CaCC activation (endogenous CaCC)	effect on gintonin-induced BKCaK+ channel activation (BKCaK+ channels)	swimming time in the quadrant where the platform had been located (mice [2]) [s]	latency time (mice [3]) [s]
COc1ccc2c(c1)CC[C@@H]1[C@@H]2CC[C@]2(C)[C@@H](NCCCCCCN3C(=O)C=CC3=O)CC[C@@H]12 [U73122]	blocked	did not block NMDA-induced inward current	blocked gintonin-induced NMDA receptor activation	suppressed gintonin-induced CaCC activation	blocked gintonin-induced BKCaK^+ channel activation		
CN1[C@@H]2C[C@@H](OC(=O)[C@H](CO)c3ccccc3)C[C@H]1[C@@H]1O[C@@H]12 [scopolamine, reference compound]						13.47 ± 1.86	23.07 ± 1.95
